Toxic doses and inconclusive results are not listed. Cut-off read from the data, not from the text of the source: active = T/C of 150% or more; inactive = T/C below 125%.
System: L1210 leukemia ip in BDF1 mice, survival T/C
Experiment: NCI In Vivo Anticancer Drug Screen. Data for tumor model L1210 Leukemia (intraperitoneal) in B6D2F1 (BDF1) mice
Conditions: endpoint: mean survival time, higher = longer survival
How it was run: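 Value reflects the ratio of survival in compound-treated mice to survival in vehicle-treated controls, with both groups carrying the same transplanted tumor.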

[1] = dose: 50.0 mg/kg/injection, schedule: Q01DX009 (ip), vehicle: saline with Tween-80
[2] = dose: 100.0 mg/kg/injection, schedule: Q04DX003 (ip), vehicle: saline
[3] = dose: 200.0 mg/kg/injection, schedule: Q04DX003 (ip), vehicle: saline
[4] = dose: 100.0 mg/kg/injection, schedule: Q01DX001 (ip), vehicle: saline
[5] = dose: 200.0 mg/kg/injection, schedule: Q01DX001 (ip), vehicle: saline
[6] = dose: 400.0 mg/kg/injection, schedule: Q01DX001 (ip), vehicle: saline
[7] = dose: 100.0 mg/kg/injection, schedule: Q01DX001 (ip), vehicle: Klucel (hydroxypropylcellulose) (HPC)
[8] = dose: 100.0 mg/kg/injection, schedule: Q01DX009 (ip), vehicle: Klucel (hydroxypropylcellulose) (HPC)
[9] = dose: 200.0 mg/kg/injection, schedule: Q01DX001 (ip), vehicle: Klucel (hydroxypropylcellulose) (HPC)
[10] = dose: 200.0 mg/kg/injection, schedule: Q01DX009 (ip), vehicle: Klucel (hydroxypropylcellulose) (HPC)
[11] = dose: 400.0 mg/kg/injection, schedule: Q01DX001 (ip), vehicle: Klucel (hydroxypropylcellulose) (HPC)
[12] = dose: 100.0 mg/kg/injection, schedule: Q01DX009 (ip), vehicle: saline
[13] = dose: 50.0 mg/kg/injection, schedule: Q01DX001 (ip), vehicle: saline
[14] = dose: 200.0 mg/kg/injection, schedule: Q01DX009 (ip), vehicle: saline
[15] = dose: 50.0 mg/kg/injection, schedule: Q01DX001 (ip), vehicle: Klucel (hydroxypropylcellulose) (HPC)
[16] = dose: 100.0 mg/kg/injection, schedule: Q04DX003 (ip), vehicle: Klucel (hydroxypropylcellulose) (HPC)
[17] = dose: 200.0 mg/kg/injection, schedule: Q04DX003 (ip), vehicle: Klucel (hydroxypropylcellulose) (HPC)
[18] = dose: 400.0 mg/kg/injection, schedule: Q01DX009 (ip), vehicle: Klucel (hydroxypropylcellulose) (HPC)
[19] = dose: 400.0 mg/kg/injection, schedule: Q04DX003 (ip), vehicle: Klucel (hydroxypropylcellulose) (HPC)
[20] = dose: 100.0 mg/kg/injection, schedule: Q01DX009 (ip), vehicle: saline with Tween-80
[21] = dose: 200.0 mg/kg/injection, schedule: Q01DX009 (ip), vehicle: saline with Tween-80

Measured: T/C

CCOC(=O)C(C(=O)OCC)C(CC(=O)C1CC1)c1ccccc1 (centres undefined)
inactive: dose: 50.0 mg/kg/injection, schedule: Q01DX001 (ip), vehicle: carboxymethylcellulose (CMC) 92 % of control | dose: 100.0 mg/kg/injection, schedule: Q01DX001 (ip), vehicle: carboxymethylcellulose (CMC) 95 % of control | dose: 100.0 mg/kg/injection, schedule: Q04DX002 (ip), vehicle: Klucel (hydroxypropylcellulose) (HPC) 97 % of control | dose: 200.0 mg/kg/injection, schedule: Q01DX001 (ip), vehicle: carboxymethylcellulose (CMC) 92 % of control | dose: 200.0 mg/kg/injection, schedule: Q04DX002 (ip), vehicle: Klucel (hydroxypropylcellulose) (HPC) 101 % of control | dose: 400.0 mg/kg/injection, schedule: Q01DX001 (ip), vehicle: carboxymethylcellulose (CMC) 95 % of control | dose: 400.0 mg/kg/injection, schedule: Q04DX002 (ip), vehicle: Klucel (hydroxypropylcellulose) (HPC) 111 % of control

c1ccc2c[n+](Cc3nc4ccccc4[nH]3)ccc2c1
inactive: dose: 75.0 mg/kg/injection, schedule: Q01DX001 (ip), vehicle: saline 101 % of control

C=C(Br)CNC(=O)OCCCC
inactive: dose: 12.5 mg/kg/injection, schedule: Q01DX009 (ip), vehicle: saline with Tween-80 94 % of control | dose: 25.0 mg/kg/injection, schedule: Q01DX009 (ip), vehicle: saline with Tween-80 100 % of control | [1] 98 % of control | [2] 94 % of control | [3] 102 % of control

O=C(O)CN1C(=O)CNC12CCCCC2
inactive: [4] 95 % of control | [5] 101 % of control | [6] 97 % of control

C=CC(C)(CC/C=C(\C)CCC=C(C)C)OC(=O)NC(=O)C(Cl)(Cl)Cl (centres undefined)
inactive: dose: 50.0 mg/kg/injection, schedule: Q01DX009 (ip), vehicle: Klucel (hydroxypropylcellulose) (HPC) 103 % of control | [7] 111 % of control | [8] 100 % of control | [9] 101 % of control | [10] 97 % of control | [11] 105 % of control

C=CCN(C=O)CC=C
inactive: [12] 101 % of control

CC(=O)OCCC[P+](c1ccccc1)(c1ccccc1)c1ccccc1
inactive: [4] 102 % of control | [5] 110 % of control

COc1ccccc1/C=N\NC(=O)CCCC(=O)N/N=C/c1ccccc1OC
inactive: [13] 95 % of control | [5] 95 % of control | [6] 90 % of control

NCCS(=O)CCN
inactive: [12] 100 % of control | [14] 107 % of control | dose: 400.0 mg/kg/injection, schedule: Q01DX009 (ip), vehicle: saline 94 % of control

COc1ccccc1-n1c(O)c(N=Nc2ccc(Br)cc2)c(=O)n(-c2ccc(Br)cc2)c1=S
inactive: [15] 93 % of control | [7] 109 % of control | [9] 102 % of control

Cc1cnc2no[n+]([O-])c2c1
inactive: [16] 101 % of control | [17] 102 % of control

CC(Cl)(/N=N\C(C)(Cl)c1ccc(Cl)cc1)c1ccc(Cl)cc1 (centres undefined)
inactive: [7] 96 % of control | [8] 92 % of control | [16] 103 % of control | [9] 92 % of control | [10] 106 % of control | [17] 103 % of control | [11] 96 % of control | [18] 98 % of control | [19] 93 % of control

CCOC1(OCC)CS(=O)(=O)C1Cl (centres undefined)
inactive: dose: 50.0 mg/kg/injection, schedule: Q01DX001 (ip), vehicle: saline with Tween-80 107 % of control | dose: 100.0 mg/kg/injection, schedule: Q01DX001 (ip), vehicle: saline with Tween-80 98 % of control | dose: 200.0 mg/kg/injection, schedule: Q01DX001 (ip), vehicle: saline with Tween-80 98 % of control

CCNCCC#N
inactive: [12] 111 % of control | [16] 108 % of control | [14] 107 % of control | [17] 107 % of control | [19] 111 % of control

CC1(C)C2CC=C(CCO)C1C2 (centres undefined)
inactive: [4] 98 % of control | dose: 100.0 mg/kg/injection, schedule: Q04DX002 (ip), vehicle: saline with Tween-80 98 % of control | [5] 93 % of control | dose: 200.0 mg/kg/injection, schedule: Q04DX002 (ip), vehicle: saline with Tween-80 110 % of control | dose: 400.0 mg/kg/injection, schedule: Q04DX002 (ip), vehicle: saline with Tween-80 93 % of control

CC(Cc1ccccc1)N(C)C(=O)CN1C(=O)c2ccccc2C1=O (centres undefined)
inactive: [13] 103 % of control | [4] 117 % of control | [5] 109 % of control | [6] 91 % of control

Cc1c(C)c(C)c(CSC(N)=Nc2ccccc2)c(C)c1C
inactive: [1] 98 % of control | [20] 102 % of control | [21] 102 % of control

C1O[C@@H]1[C@H]1CO1
inactive: dose: 9.5 mg/kg/injection, schedule: Q01DX001 (ip), vehicle: saline 100 % of control | dose: 19.0 mg/kg/injection, schedule: Q01DX001 (ip), vehicle: saline 97 % of control | dose: 38.0 mg/kg/injection, schedule: Q01DX001 (ip), vehicle: saline 101 % of control

Cc1ccc(C)c(CNC(=O)Nc2ccccc2Cl)c1
inactive: [8] 97 % of control | [10] 101 % of control

Cc1ccc(S(=O)(=O)Oc2ccc(Cl)cc2)cc1
inactive: [8] 102 % of control | [16] 105 % of control | [10] 98 % of control | [17] 97 % of control | [18] 102 % of control | [19] 101 % of control

CC(=O)CC(=O)Nc1ccc(N=Nc2ccccc2)cc1
inactive: dose: 100.0 mg/kg/injection, schedule: Q04DX003 (ip), vehicle: saline with Tween-80 93 % of control | dose: 200.0 mg/kg/injection, schedule: Q04DX003 (ip), vehicle: saline with Tween-80 91 % of control | dose: 400.0 mg/kg/injection, schedule: Q04DX003 (ip), vehicle: saline with Tween-80 91 % of control

CCc1ccc2[nH]c(C(=O)O)cc2c1
inactive: [4] 92 % of control | [6] 90 % of control

CCC(=O)c1ccc(NC(N)=S)cc1
inactive: dose: 20.0 mg/kg/injection, schedule: Q01DX005 (ip), vehicle: saline with Tween-80 94 % of control | dose: 40.0 mg/kg/injection, schedule: Q01DX005 (ip), vehicle: saline with Tween-80 95 % of control | dose: 80.0 mg/kg/injection, schedule: Q01DX005 (ip), vehicle: saline with Tween-80 94 % of control | dose: 160.0 mg/kg/injection, schedule: Q01DX005 (ip), vehicle: saline with Tween-80 101 % of control

COC1CC(OC(=O)c2ccc(C)cc2)C(COC(=O)c2ccc(C)cc2)O1 (centres undefined)
inactive: [2] 98 % of control | [3] 102 % of control | dose: 400.0 mg/kg/injection, schedule: Q04DX003 (ip), vehicle: saline 98 % of control

Cc1cc(C)c(N(C)C(=O)CCC(=O)O)c(C)c1Br
inactive: [7] 97 % of control | [8] 93 % of control | [9] 97 % of control | [10] 93 % of control | [11] 104 % of control

O=C(c1ccccc1)c1c2ccccc2c(C(=O)c2ccccc2)c2ccccc12
inactive: [8] 104 % of control | [16] 103 % of control | [10] 97 % of control | [17] 100 % of control | [18] 97 % of control | [19] 99 % of control

O=C(O)CCC(CC(=O)O)c1ccccc1 (centres undefined)
inactive: [8] 97 % of control | [10] 96 % of control | [18] 93 % of control

COC12C3C=CC4C(C=C3)C4C1C2(Br)Br (centres undefined)
inactive: [15] 105 % of control | [7] 96 % of control | [9] 105 % of control

CC(=O)Oc1cc(C(C)C)c(OCCN(C)C)cc1C
inactive: dose: 6.25 mg/kg/injection, schedule: Q01DX009 (ip), vehicle: saline 94 % of control | dose: 12.5 mg/kg/injection, schedule: Q01DX009 (ip), vehicle: saline 98 % of control | dose: 25.0 mg/kg/injection, schedule: Q01DX009 (ip), vehicle: saline 100 % of control

COC1(c2cccs2)OC1(C)C (centres undefined)
inactive: [20] 110 % of control | [21] 94 % of control | dose: 400.0 mg/kg/injection, schedule: Q01DX009 (ip), vehicle: saline with Tween-80 100 % of control

O=C1C(=O)C2=C(NCCC2)C(O)=C1Cl
inactive: dose: 100.0 mg/kg/injection, schedule: Q01DX001 (ip), vehicle: water 93 % of control | dose: 200.0 mg/kg/injection, schedule: Q01DX001 (ip), vehicle: water 95 % of control | dose: 400.0 mg/kg/injection, schedule: Q01DX001 (ip), vehicle: water 98 % of control

— PubChem BioAssay AID248 (DTP/NCI, 2004)
